As usually defined, the EC50 is the concentration giving half of the maximal effect.

Consider 5 compounds from patent US9988430B2, “Stable GLP-1 based GLP-1/glucagon receptor co-agonists” (Novo Nordisk A/S, priority 2014, dated 2018).

*1 amine or outer side, *2 acyl side, *3 side chain or, on linkers, in order; H or OH if unused. Where a SMILES comes first, the peptide text is derived from it. Bridges are numbered along the chain shown (N, C = ends). Roman numbers before positions name the chains, in order. Side-chain parts run from the residue outwards. [ ]: non-standard residue; d: D form. The star is where a group is joined. C18 diacid = O=C(O)CCCCCCCCCCCCCCCCC(=O)*; γGlu = O=C(O)[C@H](CCC(=O)[*:2])N[*:1]; Desaminohistidyl = O=C(CCc1c[nH]cn1)*; Ac4c = NC1(C(=O)O)CCC1; AEEA = NCCOCCOCC(=O)O; Aib = CC(C)(N)C(=O)O

The target of the first data set is T1, human GLP-1 receptor (Homo sapiens, UniProt P43220).
T1 construct: expressed in transfected cells; host or cells: membranes of BHK cells, parent line BHKTS13, clone FCW467-12A
T1 sequence (P43220 24-463): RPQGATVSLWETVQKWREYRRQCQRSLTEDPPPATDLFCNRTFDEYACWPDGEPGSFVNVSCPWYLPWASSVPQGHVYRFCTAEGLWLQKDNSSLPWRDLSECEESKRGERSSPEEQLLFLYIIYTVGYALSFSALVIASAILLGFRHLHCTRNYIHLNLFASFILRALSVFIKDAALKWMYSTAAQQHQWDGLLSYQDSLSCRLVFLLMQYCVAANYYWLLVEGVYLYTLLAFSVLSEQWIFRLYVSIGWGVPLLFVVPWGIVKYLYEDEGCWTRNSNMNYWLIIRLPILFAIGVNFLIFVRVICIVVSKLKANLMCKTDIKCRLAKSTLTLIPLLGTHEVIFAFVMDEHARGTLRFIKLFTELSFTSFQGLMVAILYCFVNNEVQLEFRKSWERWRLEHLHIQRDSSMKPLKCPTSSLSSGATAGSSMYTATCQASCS
As to the kind of experiment: Assay (I)(a): GLP-1 receptor potency, CRE luciferase reporter gene assay in BHK cells. Conditions: BHK cells expressing human GLP-1 receptor, read-out: EC50 GLP-1R. The data set is classed as cell-based. The essentials:
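BHK cells (clone FCW467-12A/KZ10-1), 5×10EE3/well, exposed 3 h at 37° C to compound at 1×10EE-13 to 1×10EE-6 M final in medium with 2% ovalbumin and 0.2% Pluronic F-68. Luciferase luminescence read; EC50 (pM) from four-parameter fit.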
Background: Reporter assays use an easily measured gene product as a stand-in for the process of interest.
As to `CC[C@H](C)[C@H](NC(=O)[C@H](Cc1ccccc1)NC(=O)[C@H](CCC(=O)O)NC(=O)[C@H](CCCNC(=N)N)NC(=O)[C@H](C)NC(=O)[C@H](C)NC(=O)[C@H](CCCNC(=N)N)NC(=O)CNC(=O)[C@H](CCC(=O)O)NC(=O)[C@H](CC(C)C)NC(=O)[C@H](Cc1ccc(O)cc1)NC(=O)[C@H](CCCCN)NC(=O)[C@H](CO)NC(=O)[C@@H](NC(=O)[C@H](CC(=O)O)NC(=O)[C@H](CO)NC(=O)[C@@H](NC(=O)[C@H](Cc1ccccc1)NC(=O)[C@@H](NC(=O)CNC(=O)[C@H](Cc1c[nH]cn1)NC(=O)C1(NC(=O)CCc2c[nH]cn2)CCC1)[C@@H](C)O)[C@@H](C)O)C(C)C)C(=O)N[C@@H](C)C(=O)N[C@@H](Cc1c[nH]c2ccccc12)C(=O)N[C@@H](CC(C)C)C(=O)N[C@@H](CC(C)C)C(=O)N[C@@H](CCCCNC(=O)CNC(=O)[C@H](CO)NC(=O)[C@H](CCC(=O)O)NC(=O)CNC(=O)[C@H](CO)NC(=O)CC[C@H](NC(=O)CC[C@H](NC(=O)CCCCCCCCCCCCCCCCC(=O)O)C(=O)O)C(=O)O)C(=O)N[C@H](C(N)=O)[C@@H](C)O` [Example 20, N^ε34-[2-[[(2S)-2-[[(2S)-4-carboxy-2-[[2-[[(2S)-2-[[(4S)-4-carboxy-4-[[(4S)-4-carboxy-4-(17-carboxyheptadecanoylamino)butanoyl]amino]butanoyl]amino]-3-hydroxypropanoyl]amino]acetyl]amino]butanoyl]amino]-3-hydroxypropanoyl]amino]acetyl]-[Imp7,Acb8,His9,Lys18,Arg23,Arg26,Leu33,Thr35]-GLP-1-(7-35)-peptide amide] (I: Desaminohistidyl-[Ac4c]HGTFTSDVSKYLEGRAAREFIAWLLKT-NH2 / II: {C18 diacid-γGlu-γGlu}-SGESG; amide I:27-II:C), the EC50 was 12 pM.
Turning to `CC[C@H](C)[C@H](NC(=O)[C@H](Cc1ccccc1)NC(=O)[C@H](CCC(=O)O)NC(=O)[C@H](CCCNC(=N)N)NC(=O)[C@H](C)NC(=O)[C@H](C)NC(=O)[C@H](CCCNC(=N)N)NC(=O)CNC(=O)[C@H](CCC(=O)O)NC(=O)[C@H](CC(C)C)NC(=O)[C@H](Cc1ccc(O)cc1)NC(=O)[C@H](CCCNC(=N)N)NC(=O)[C@H](CO)NC(=O)[C@@H](NC(=O)[C@H](CC(=O)O)NC(=O)[C@H](CO)NC(=O)[C@@H](NC(=O)[C@H](Cc1ccccc1)NC(=O)[C@@H](NC(=O)CNC(=O)[C@H](Cc1c[nH]cn1)NC(=O)C(C)(C)NC(=O)CCc1c[nH]cn1)[C@@H](C)O)[C@@H](C)O)C(C)C)C(=O)N[C@@H](C)C(=O)N[C@@H](Cc1c[nH]c2ccccc12)C(=O)N[C@@H](CC(C)C)C(=O)N[C@@H](CC(C)C)C(=O)N[C@@H](CCCCNC(=O)CC[C@H](NC(=O)CC[C@H](NC(=O)COCCOCCNC(=O)CC[C@H](NC(=O)CC[C@H](NC(=O)CCCCCCCCCCCCCCCCC(=O)O)C(=O)O)C(=O)O)C(=O)O)C(=O)O)C(=O)NCC(=O)N[C@@H](C)C(=O)NCC(=O)O` [Example 35, N^ε34-[(4S)-4-carboxy-4-[[(4S)-4-carboxy-4-[[2-[2-[2-[[(4S)-4-carboxy-4-[[(4S)-4-carboxy-4-(17-carboxyheptadecanoylamino)butanoyl]amino]butanoyl]amino]ethoxy]ethoxy]acetyl]amino]butanoyl]amino]butanoyl]-[Imp7,Aib8,His9,Arg18,Arg23,Arg26,Leu33,Ala36]-GLP-1-(7-37)-peptide] (Desaminohistidyl-[Aib]HGTFTSDVSRYLEGRAAREFIAWLLK([γGlu-γGlu-AEEA-γGlu-γGlu-C18 diacid])GAG-OH), the EC50 turned out to be 3 pM.

Tested on in another data set: not listed separately
In words: Assay (V): chemical stability assessment by RP-UPLC. The data set is classed as physicochemical. Conditions: 14 days at 37° C. in phosphate buffer (pH 7.3). Here is the method:
Assay (V): Chemical Stability Assessment
The purpose of this assay is to assess the chemical stability of the GLP-1 derivatives of the present invention in aqueous solutions.
Chemical stability of GLP-1 derivatives may be investigated by RP-UPLC separation and UV detection. Lyophilized samples are dissolved in a 8 mM Phosphate buffer pH 8.6, followed by adjustment to pH 7.3 using HCl to a final concentration of 333 μM. Samples are incubated for 14 days at 5° C. and 37° C. followed by RP-UPLC analysis. Purity is defined as the area percentage of the main peak in relation to the total area of all integrated peaks in each chromatogram. Purity loss, also referred to herein as chemical degradation, after 14 days at 37° C. is determined as the difference in purity between the samples incubated at 5° C. and 37° C., divided by the purity of the sample after incubation for 14 days at 5° C.
RP-UPLC analysis is performed using a Waters BEH130 2.1 mm×150 mm, 1.7 μm column operated at 50° C. and a flow rate of 0.4 mL/min using a mobile phase system consisting of A: 0.05% TFA in MQ-water, and B: 0.05% TFA in Acetonitrile. UV-detection is performed at 215 nm. The typical gradient profile used for most of the samples is shown below.
For some individual derivatives eluting at substantially different retention times compared with the majority of derivatives, some adjustments to the gradient profile are made to better enable purity assessment comparison across samples.
For `CC[C@H](C)[C@H](NC(=O)[C@H](Cc1ccccc1)NC(=O)[C@H](CCC(=O)O)NC(=O)[C@H](CCCNC(=N)N)NC(=O)[C@H](C)NC(=O)[C@H](C)NC(=O)[C@H](CCC(N)=O)NC(=O)[C@H](CCC(=O)O)NC(=O)[C@H](CCC(=O)O)NC(=O)[C@H](CC(C)C)NC(=O)[C@H](Cc1ccc(O)cc1)NC(=O)[C@H](CCCCN)NC(=O)[C@H](CO)NC(=O)[C@@H](NC(=O)[C@H](CC(=O)O)NC(=O)[C@H](CO)NC(=O)[C@@H](NC(=O)[C@H](Cc1ccccc1)NC(=O)[C@@H](NC(=O)CNC(=O)[C@H](Cc1c[nH]cn1)NC(=O)C(C)(C)NC(=O)CCc1c[nH]cn1)[C@@H](C)O)[C@@H](C)O)C(C)C)C(=O)N[C@@H](C)C(=O)N[C@@H](Cc1c[nH]c2ccccc12)C(=O)N[C@@H](CC(C)C)C(=O)N[C@@H](CC(C)C)C(=O)N[C@@H](CCCCNC(=O)COCCOCCNC(=O)COCCOCCNC(=O)CC[C@H](NC(=O)CC[C@H](NC(=O)CCCCCCCCCCCCCCCCC(=O)O)C(=O)O)C(=O)O)C(=O)N[C@H](C(N)=O)[C@@H](C)O` [Example 5, N^ε34-[2-[2-[2-[[2-[2-[2-[[(4S)-4-carboxy-4-[[(4S)-4-carboxy-4-(17-carboxyheptadecanoylamino)butanoyl]amino]butanoyl]amino]ethoxy]ethoxy]acetyl]amino]ethoxy]ethoxy]acetyl]-[Imp7,Aib8,His9,Lys18,Glu22,Arg26,Leu33,Thr35]-GLP-1-(7-35)-peptide amide] (Desaminohistidyl-[Aib]HGTFTSDVSKYLEEQAAREFIAWLLK([AEEA-AEEA-γGlu-γGlu-C18 diacid])T-NH2), the “Chemical stability: Chemical degradation over 14 days at 37° C.” value is given as 0.4%.
Consider `CC[C@H](C)[C@H](NC(=O)[C@H](Cc1ccccc1)NC(=O)[C@H](CCC(=O)O)NC(=O)[C@H](CCCNC(=N)N)NC(=O)[C@H](C)NC(=O)[C@H](C)NC(=O)[C@H](CCCNC(=N)N)NC(=O)CNC(=O)[C@H](CCC(=O)O)NC(=O)[C@H](CC(C)C)NC(=O)[C@H](Cc1ccc(O)cc1)NC(=O)[C@H](CCCCN)NC(=O)[C@H](CO)NC(=O)[C@@H](NC(=O)[C@H](CC(=O)O)NC(=O)[C@H](CO)NC(=O)[C@@H](NC(=O)[C@H](Cc1ccccc1)NC(=O)[C@@H](NC(=O)CNC(=O)[C@H](Cc1c[nH]cn1)NC(=O)C1(NC(=O)CCc2c[nH]cn2)CCC1)[C@@H](C)O)[C@@H](C)O)C(C)C)C(=O)N[C@@H](C)C(=O)N[C@@H](Cc1c[nH]c2ccccc12)C(=O)N[C@@H](CC(C)C)C(=O)N[C@@H](CC(C)C)C(=O)N[C@@H](CCCCNC(=O)CNC(=O)[C@H](CO)NC(=O)[C@H](CCC(=O)O)NC(=O)CNC(=O)[C@H](CO)NC(=O)CC[C@H](NC(=O)CC[C@H](NC(=O)CCCCCCCCCCCCCCCCC(=O)O)C(=O)O)C(=O)O)C(=O)N[C@H](C(N)=O)[C@@H](C)O` [Example 20, N^ε34-[2-[[(2S)-2-[[(2S)-4-carboxy-2-[[2-[[(2S)-2-[[(4S)-4-carboxy-4-[[(4S)-4-carboxy-4-(17-carboxyheptadecanoylamino)butanoyl]amino]butanoyl]amino]-3-hydroxypropanoyl]amino]acetyl]amino]butanoyl]amino]-3-hydroxypropanoyl]amino]acetyl]-[Imp7,Acb8,His9,Lys18,Arg23,Arg26,Leu33,Thr35]-GLP-1-(7-35)-peptide amide] (I: Desaminohistidyl-[Ac4c]HGTFTSDVSKYLEGRAAREFIAWLLKT-NH2 / II: {C18 diacid-γGlu-γGlu}-SGESG; amide I:27-II:C), for which the “Chemical stability: Chemical degradation over 14 days at 37° C.” value is 0.4%.
Still for that read-out and setting: then `CC[C@H](C)[C@H](NC(=O)[C@H](Cc1ccccc1)NC(=O)[C@H](CCC(=O)O)NC(=O)[C@H](CCCNC(=N)N)NC(=O)[C@H](C)NC(=O)[C@H](C)NC(=O)[C@H](CCCNC(=N)N)NC(=O)[C@H](C)NC(=O)[C@H](CCC(=O)O)NC(=O)[C@H](CC(C)C)NC(=O)[C@H](Cc1ccc(O)cc1)NC(=O)[C@H](CCCCN)NC(=O)[C@H](CO)NC(=O)[C@@H](NC(=O)[C@H](CC(=O)O)NC(=O)[C@H](CO)NC(=O)[C@@H](NC(=O)[C@H](Cc1ccccc1)NC(=O)[C@@H](NC(=O)CNC(=O)[C@H](Cc1c[nH]cn1)NC(=O)C(C)(C)NC(=O)CCc1c[nH]cn1)[C@@H](C)O)[C@@H](C)O)C(C)C)C(=O)N[C@@H](C)C(=O)N[C@@H](Cc1c[nH]c2ccccc12)C(=O)N[C@@H](CC(C)C)C(=O)N[C@@H](CC(C)C)C(=O)N[C@@H](CCCCNC(=O)CC[C@H](NC(=O)COCCOCCNC(=O)COCCOCCNC(=O)CC[C@H](NC(=O)CC[C@H](NC(=O)CCCCCCCCCCCCCCCCC(=O)O)C(=O)O)C(=O)O)C(=O)O)C(=O)NCC(=O)NCC(=O)NCC(=O)O` [Example 31, N^ε34-[(4S)-4-carboxy-4-[[2-[2-[2-[[2-[2-[2-[[(4S)-4-carboxy-4-[[(4S)-4-carboxy-4-(17-carboxyheptadecanoylamino)butanoyl]amino]butanoyl]amino]ethoxy]ethoxy]acetyl]amino]ethoxy]ethoxy]acetyl]amino]butanoyl]-[Imp7,Aib8,His9,Lys18,Ala22,Arg23,Arg26,Leu33,Gly36]-GLP-1-(7-37)-peptide] (Desaminohistidyl-[Aib]HGTFTSDVSKYLEARAAREFIAWLLK([γGlu-AEEA-AEEA-γGlu-γGlu-C18 diacid])GGG-OH), with 0.1%; and `CC[C@H](C)[C@H](NC(=O)[C@H](Cc1ccccc1)NC(=O)[C@H](CCC(=O)O)NC(=O)[C@H](CCCNC(=N)N)NC(=O)[C@H](C)NC(=O)[C@H](C)NC(=O)[C@H](CCC(N)=O)NC(=O)CNC(=O)[C@H](CCC(=O)O)NC(=O)[C@H](CC(C)C)NC(=O)[C@H](Cc1ccc(O)cc1)NC(=O)[C@H](CCCNC(=N)N)NC(=O)[C@H](CO)NC(=O)[C@@H](NC(=O)[C@H](CC(=O)O)NC(=O)[C@H](CO)NC(=O)[C@@H](NC(=O)[C@H](Cc1ccccc1)NC(=O)[C@@H](NC(=O)CNC(=O)[C@H](Cc1c[nH]cn1)NC(=O)C(C)(C)NC(=O)CCc1c[nH]cn1)[C@@H](C)O)[C@@H](C)O)C(C)C)C(=O)N[C@@H](C)C(=O)N[C@@H](Cc1c[nH]c2ccccc12)C(=O)N[C@@H](CC(C)C)C(=O)N[C@@H](CC(C)C)C(=O)N[C@@H](CCCCNC(=O)CNC(=O)[C@H](CO)NC(=O)[C@H](CCC(=O)O)NC(=O)CNC(=O)[C@H](CO)NC(=O)CC[C@H](NC(=O)CC[C@H](NC(=O)CCCCCCCCCCCCCCCCC(=O)O)C(=O)O)C(=O)O)C(=O)N[C@H](C(N)=O)[C@@H](C)O` [Example 8, N^ε34-[2-[[(2S)-2-[[(2S)-4-carboxy-2-[[2-[[(2S)-2-[[(4S)-4-carboxy-4-[[(4S)-4-carboxy-4-(17-carboxyheptadecanoylamino)butanoyl]amino]butanoyl]amino]-3-hydroxypropanoyl]amino]acetyl]amino]butanoyl]amino]-3-hydroxypropanoyl]amino]acetyl]-[Imp7,Aib8,His9,Arg18,Arg26,Leu33,Thr35]-GLP-1-(7-35)-peptide amide] (I: Desaminohistidyl-[Aib]HGTFTSDVSRYLEGQAAREFIAWLLKT-NH2 / II: {C18 diacid-γGlu-γGlu}-SGESG; amide I:27-II:C), with 1.6%.
